In patent publication US5919464A, “Treatment of aberrant cellular states with biomodulators” (University of New Mexico, priority 1993, dated 1999):
“Also recorded” adds a separate entry of the source.

Assays:
α-mannosidase II = details: in words; cited from earlier work
solid tumor models = details: in words; cited from earlier work
IL-2R; LAK = details: in words, cited from earlier work
B16F10 cells = details: Sw in drinking water (3 μg/ml) for 24 hours; cited from earlier work
antibody formation = details: in words, cited from earlier work
splenocytes = assay: effect of swainsonine on humoral immunity (PFC assay); type: in vivo, mouse
Method: The plaque forming cell (PFC) assay was done according to the method developed by Jerne and Nordin (1963). The splenocytes were washed in serum-free RPMI-1640 and brought to a final concentration of 1×10^6 cell/100 μl. Sheep red blood cells (sRBC), from The Colorado Serum Company, were labelled with protein A from Staphylococcus aureus (Sigma). The sRBC's were washed 3 times with saline (0.85% NaCl), the packed cells were then incubated with 1 ml of protein A (0.5 mg/ml saline) and 10 ml of saline containing 0.1 μl of CrCl3 (35% solution) (Aldrich), for 20 minutes. The sRBC's were then washed 3 times with PBS and suspended in PBS to make a 30% solution. The sRBC's (50 μl) and splenocytes (100μl) were combined with SeaPlaque agarose (FMC Corporation) and smeared on a 75 mm×50 mm microscope slide to form a lawn of target red blood cells with uniformly dispersed effector cells. Each sample was done in triplicate. The agarose was allowed to harden and the slides were placed in trays containing serum-free RPMI-1640. The trays were incubated at 37° C. in a CO2 incubator for 90 min. After incubation the slides were placed in slide holders containing normal saline for a wash step. The rabbit/anti-mouse antibody (DAKO Corporation) was diluted 1:400 with serum free RPMI-1640 and added to the slide trays. Following another 90 min. incubation at 37° C. in a CO2 incubator, the slides were again washed. Fresh frozen guinea pig complement (GIBCO) (2%) in serum-free RPMI-1640 was added to the slide trays and incubated for another 60 to 90 min. depending on the time necessary for plaque formation. The number of plaques were counted and the results reported as number of plaque forming cells per 1×10^6 splenocytes.
Mice were pretreated for 3 weeks with Sw (0.1 μg and 0.01 μg), and then received B16 cells. At 3 time points post tumor cell injection (day 0, 7 and 14), the mice were sacrificed and the spleens were removed. The cells were then used to determine the effect of Sw on humoral immunity. […] The presence of a day 7 tumor caused a return to baseline for all the groups. […]

canine glioma (CG) cells = assay: NMR T-2* linewidth of canine glioma cells; type: cell-based
Excerpt: These measurements correlate with the status of the cell surface oligosaccharide display. When the GFE decreases, as in cellular senescence, the linewidth measurements decrease, indicating an increased frequency of motion of unfrozen water on the surface. […] Additional data which supports this phenomenological connection between linewidth changes and the functional surface organization include; t-butanol extraction results in uniform decreases in the linewidth; biomodulator treatment of PDL-35 IMR-90s prevents the linewidth changes observed with the senescent populations; and the correlation between the cell surface organization changes and the linewidth data. […] The cells used for all these experiments are between passage 30 and passage 75.
In the growth transformed population we use the term unregulated to distinguish the models. In this case the linewidth for the CG controls are much higher than the IMR-90 values and the re-regulation results in a lowering of these values, approaching the data for the IMR-90s.
The cell surface oligosaccharide display was assessed by methods developed previously. In brief, cells from a sub-culturing were aliquotted into 96 well trays at 5×10^5 cells per ml, 100 μL aliquots. After 16 hours of culture the cells were washed, fixed, and blocked with 0.1% BSA/PBS. Optimal lectin concentrations (5 μg/ml)were used to give 80 to 90% saturation of the available sites. Three carbohydrate ligands at 10 μg concentrations in triplicate or quadruplicate were then used to prepare competition curves for the lectin binding. The Bound over Free (B/F) ratio was calculated and the Ligand microprocessor program was used to determine the optimal fit of the data to a polynomial generated model. The Gibb's Free Energy (GFE) was calculated from the Scatchard data on the competition assay by the following equation: GFE=-RT ln Kequil. The proton NMR linewidth measurements were conducted as described previously.

B16 melanoma cells = assay: effect of swainsonine on B16 melanoma solid tumor growth; type: in vivo, C57Bl/6 mice; details: for inhibition of B16 growth at other doses: 1.0, 0.01 and 0.001 μg Sw
Method: The B16 melanoma cells were purchased from American Type Culture Collection (ATCC). They were maintained in complete α-MEM (SIGMA) (with 10% fetal calf serum (FCS) (Sigma), 100 U/ml penicillin (Sigma), 100 μg/ml streptomycin (Sigma) and 2 mM glutamine (Sigma)) in Corning 75 cm^2 straight necked flasks (T75) and grown with 5.5% CO2 in air with 95% humidity in a New Brunswick Scientific water jacketed incubator. […] They were harvested using 1× Trypsin-EDTA (Sigma), centrifuged at 100×g with a Beckman TJ6 centrifuge, counted using a hemocytometer and stained with trypan blue to determine viability. The cells used for injection into the mice were washed three times in phosphate buffered saline (PBS), counted and resuspended in PBS at a final concentration of 6×10^6 cells per ml.
The swainsonine, purchased from Boehringer Mannheim, was initially suspended in PBS at 100 μg/ml. Subsequent dilutions utilized in the following experiments were made in PBS.
Fifteen female C57Bl/6 mice (6 weeks old, from Harlan Sprague Dawley Laboratories) were treated 3 times per week on a Monday-Wednesday-Friday (MWF) schedule for three weeks prior to the injection of the 6×10^5 B16 melanoma cells. The treatment consisted of 0.1 ml (total volume) intraperitoneal injections of swainsonine in the mornings before 9:00 am. The treatment groups were as follows:
The MWF treatment with the swainsonine continued after the tumor cell injection until the termination of the study. Once the tumor was palpable, electronic calipers were used to measure the length (l), width (w) and depth (d) of the tumor. The volume of the tumor was then determined by V=πr^2 ×d, with the assumption that the tumor is a […], then r=(l+w)/4.

O[C@H]1[C@H]2[C@H](O)CCCN2C[C@H]1O [Swainsonine, swainsonine]
α-mannosidase II (α-mannosidase II): inhibition of α-mannosidase II | growth of other solid tumors (solid tumor models): delay growth in several other solid tumor models | lymphoid IL-2R expression and IL-2 induced proliferation (IL-2R; LAK; following mitogenic stimulation): augmented lymphoid IL-2R expression and IL-2 induced proliferation | LAK induction (IL-2R; LAK; normally sub-optimal stimulation doses): augmented the LAK induction | stimulation of CTL (B16F10 cells): no stimulation of CTL | antibody production after immunosuppressive factor (antibody formation; Sw 3.7-100 mg/kg i.p. 5 days): return to normal levels of antibody production | PFC numbers, Sw alone (antibody formation): no changes in PFC numbers | increase in plaque forming cells (PFC) (splenocytes; 0.01 μg Sw 3 weeks over mice not receiving Sw, p=0.001): 89% | PFC versus control group (splenocytes; 0.1 μg Sw without tumor, in words): not as significantly different from the control group (p=0.04) | PFC versus controls (splenocytes; 0.1 μg Sw, day 14, in words): not a significant difference between the controls and these treated mice (p=0.13) | T-2* linewidth (canine glioma (CG) cells; 233 K, four weeks of treatment, mean ± SD): 300 ± 8 | linewidth change versus controls (canine glioma (CG) cells; after one treatment / one week, in words, listed as Sw): significant (P>0.01]) decreases in linewidth; also recorded: significantly (P>0.01) different from those of the untreated controls | linewidth after treatment withdrawal versus control (canine glioma (CG) cells; four weeks treatment, one week withdrawal, in words): still significantly different from control values | delay of tumor growth onset (B16 melanoma cells; 0.1 μg Sw): two | reduction of tumor size compared to controls (B16 melanoma cells; 0.1 μg Sw, day 9, p=0.03): 74% | reduction of tumor size compared to controls (B16 melanoma cells; 0.1 μg Sw, day 11, p=0.003): 68% | day of palpable tumors (B16 melanoma cells; 0.1 μg Sw, control day 5): 7 days | day of measurable tumors (B16 melanoma cells; 0.1 μg Sw, control day 7): 9 days | tumor growth at 1.0 μg (B16 melanoma cells; 1.0 μg Sw, in words): enhanced growth | inhibition of B16 growth at other doses (B16 melanoma cells; in words): no effect on delaying growth | inhibition of B16 growth at other doses (B16 melanoma cells; in words, listed as Sw): less effective at inhibiting the B16 growth (p<0.5)
